Converted amounts (≈) assume the structure as drawn.
Tests used:
Assay type in all cases: cell-based
Escherichia coli DC-2 = assay: In vitro agar dilution MIC, organism code SS; settings: Table 1B, unit assumed
Method: (§1) Representative compounds of the present invention were assayed in vitro for antibacterial activity as follows: Twelve petri dishes containing successive aqueous dilutions of the test compound mixed with 10 mL of sterilized Brain Heart Infusion (BHI) agar (Difco 0418-01-5) were prepared. Each plate was inoculated with 1:100 (or 1:10 for slow-growing strains, such as Micrococcus and Streptococcus) dilutions of up to 32 different microorganisms, using a Steers replicator block. The inoculated plates were incubated at 35-37° C. for 20 to 24 hours. In addition, a control plate, using BHI agar containing no test compound, was prepared and incubated at the beginning and end of each test.
(§2) An additional plate containing a compound having known susceptibility patterns for the organisms being tested and belonging to the same antibiotic class as the test compound was also prepared and incubated as a further control, as well as to provide test-to-test comparability.
(§3) After incubation, each plate was visually inspected. The minimum inhibitory concentration (MIC) was defined as the lowest concentration of drug yielding no growth, a slight haze, or sparsely isolated colonies on the inoculum spot as compared to the growth control.

[1] = tested on: Streptococcus pneumoniae 5979; assay: In vitro agar dilution MIC, organism code ZZ; settings: unit assumed
Method: as §1, §2, §3

[2] = tested on: Mycobacterium smegmatis ATCC 114; assay: In vitro agar dilution MIC, organism code UU; settings: Table 1B, in µg/mL (unit assumed)
Method: as §1, §2, §3

[3] = tested on: Staphylococcus aureus ATCC 6538P; assay: In vitro agar dilution MIC, organism code AA; settings: unit assumed
Method: as §1, §2, §3

[4] = tested on: Haemophilis influenzae DILL AMP R; assay: In vitro agar dilution MIC, organism code WW; settings: unit assumed
Method: as §1, §2, §3

[5] = tested on: Micrococcus luteus ATCC 4698; assay: In vitro agar dilution MIC, organism code PP; settings: Table 1B, in µg/mL (unit assumed)
Method: as §1, §2, §3

[6] = tested on: Streptococcus pneumoniae ATCC 6303; assay: In vitro agar dilution MIC, organism code XX; settings: unit assumed
Method: as §1, §2, §3

[7] = tested on: Staphylococcus aureus NCTC10649M; assay: In vitro agar dilution MIC, organism code EE; settings: Table 1B, unit assumed
Method: as §1, §2, §3

Escherichia coli JUHL = assay: In vitro agar dilution MIC, organism code QQ; settings: Table 1B, in µg/mL (unit assumed)
Method: as §1, §2, §3

[8] = tested on: Streptococcus bovis A-5169; assay: In vitro agar dilution MIC, organism code JJ; settings: Table 1B, unit assumed
Method: as §1, §2, §3

[9] = tested on: Staphylococcus aureus A5177; assay: In vitro agar dilution MIC, organism code BB; settings: in µg/mL (unit assumed)
Method: as §1, §2, §3

[10] = tested on: Streptococcus pneumoniae 5649; assay: In vitro agar dilution MIC, organism code ZZA; settings: unit assumed
Method: as §1, §2, §3

[11] = tested on: Staphylococcus aureus 1775; assay: In vitro agar dilution MIC, organism code GG; settings: Table 1B, unit assumed
Method: as §1, §2, §3

[12] = tested on: Staphylococcus aureus CMX 642A; assay: In vitro agar dilution MIC, organism code DD; settings: Table 1B, unit assumed
Method: as §1, §2, §3

[13] = tested on: Staphylococcus aureus A-5278; assay: In vitro agar dilution MIC, organism code CC; settings: unit assumed
Method: as §1, §2, §3

[14] = tested on: Streptococcus pyogenes PIU 2548; assay: In vitro agar dilution MIC, organism code NN; settings: unit assumed
Method: as §1, §2, §3

[15] = tested on: Staphylococcus epidermidis 3519; assay: In vitro agar dilution MIC, organism code HH; settings: Table 1B, in µg/mL (unit assumed)
Method: as §1, §2, §3

[16] = tested on: Streptococcus pneumoniae GYR 1171; assay: In vitro agar dilution MIC, organism code YY; settings: Table 1B, unit assumed
Method: as §1, §2, §3

[17] = tested on: Streptococcus pyogenes 930; assay: In vitro agar dilution MIC, organism code MM; settings: unit assumed
Method: as §1, §2, §3

[18] = tested on: Enterococcus faecium ATCC 8043; assay: In vitro agar dilution MIC, organism code II; settings: Table 1B, unit assumed
Method: as §1, §2, §3

Escherichia coli SS = assay: In vitro agar dilution MIC, organism code RR; settings: Table 1B, in µg/mL (unit assumed)
Method: as §1, §2, §3

Candida albicans CCH 442 = assay: In vitro agar dilution MIC, organism code TT; settings: Table 1B, unit assumed
Method: as §1, §2, §3

[19] = tested on: Streptococcus pyogenes EES61; assay: In vitro agar dilution MIC, organism code LL; settings: unit assumed
Method: as §1, §2, §3

[20] = tested on: Staphylococcus aureus CMX 553; assay: In vitro agar dilution MIC, organism code FF; settings: Table 1B, unit assumed
Method: as §1, §2, §3

[21] = tested on: Streptococcus agalactiae CMX 508; assay: In vitro agar dilution MIC, organism code KK; settings: Table 1B, unit assumed
Method: as §1, §2, §3

[22] = tested on: Nocardia asteroides ATCC 9970; assay: In vitro agar dilution MIC, organism code VV; settings: Table 1B, in µg/mL (unit assumed)
Method: as §1
as §2, with “comparability. Erythromycin A was used for this purpose.” for “comparability.”
as §3

[23] = tested on: Micrococcus luteus ATCC 9341; assay: In vitro agar dilution MIC, organism code OO; settings: Table 1B, unit assumed
Method: as §1, §2, §3

| Structure (SMILES) | MIC (Escherichia coli DC-2) [µg/mL] | MIC ([1]; Table 1B) [µg/mL] | MIC [2] | MIC ([3]; Table 1B) [µg/mL] | MIC ([4]; Table 1B) [µg/mL] | MIC [5] | MIC ([6]; Table 1B) [µg/mL] | MIC [7] [µg/mL] | MIC (Escherichia coli JUHL) | MIC [8] [µg/mL] | MIC ([9]; Table 1B) | MIC ([10]; Table 1B) [µg/mL] | MIC [11] [µg/mL] | MIC [12] [µg/mL] | MIC ([13]; Table 1B) [µg/mL] | MIC ([14]; Table 1B) [µg/mL] | MIC [15] | MIC [16] [µg/mL] | MIC ([17]; Table 1B) [µg/mL] | MIC [18] [µg/mL] | other results |
| --- | --- | --- | --- | --- | --- | --- | --- | --- | --- | --- | --- | --- | --- | --- | --- | --- | --- | --- | --- | --- | --- |
| CC[C@H]1OC(=O)C(C)(Cl)C(=O)[C@H](C)[C@@H](O[C@@H]2O[C@H](C)C[C@H](N(C)C)[C@H]2O)[C@](C)(OC)C[C@@H](C)C2=NCCN3C(=O)O[C@@]1(C)[C@H]3[C@H]2C (stereo partly shown) [Example 2] | > 100 | > 128 | > 100 | 25 (≈ 37.2 µM) | 32 (≈ 47.6 µM) | 6.2 | 4 (≈ 5.95 µM) | 25 (≈ 37.2 µM) | > 100 | 1.56 (≈ 2.32 µM) | 25 | 4 (≈ 5.95 µM) | > 100 | 50 (≈ 74.4 µM) | > 100 | 6.2 (≈ 9.22 µM) | 25 | 4 (≈ 5.95 µM) | > 100 | 12.5 (≈ 18.6 µM) | MIC ([1]; Table 1C): > 128 µg/mL; MIC ([3]; Table 1C): 25 µg/mL (≈ 37.2 µM); MIC ([4]; Table 1C): 32 µg/mL (≈ 47.6 µM); MIC ([6]; Table 1C): 4 µg/mL (≈ 5.95 µM); MIC ([9]; Table 1C): 25; MIC ([10]; Table 1C): 4 µg/mL (≈ 5.95 µM); MIC ([13]; Table 1C): > 100 µg/mL; MIC ([14]; Table 1C): 16 µg/mL (≈ 23.8 µM); MIC ([17]; Table 1C): 128 µg/mL (≈ 190 µM); MIC (Escherichia coli SS): 0.78; MIC (Candida albicans CCH 442): > 100 µg/mL; MIC ([19]; Table 1B): 3.1 µg/mL (≈ 4.61 µM); MIC ([19]; Table 1C): 4 µg/mL (≈ 5.95 µM); MIC [20]: 25 µg/mL (≈ 37.2 µM); MIC [21]: 3.1 µg/mL (≈ 4.61 µM); MIC [22]: 50; MIC [23]: 3.1 µg/mL (≈ 4.61 µM) |
| C=CCO[C@]1(C)C[C@@H](C)C(=O)[C@H](C)[C@H]2NC(=O)O[C@]2(C)[C@@H](CC)OC(=O)[C@@](C)(F)C(=O)[C@H](C)[C@H]1O[C@@H]1O[C@H](C)C[C@H](N(C)C)[C@H]1O [Example 4] | > 100 | > 128 | 6.2 | 0.78 (≈ 1.19 µM) | 8 (≈ 12.2 µM) | 0.78 | 0.06 (≈ 0.0914 µM) | 0.78 (≈ 1.19 µM) | > 100 | 0.2 (≈ 0.305 µM) | 0.78 | 0.25 (≈ 0.381 µM) | > 100 | 0.78 (≈ 1.19 µM) | > 100 | 0.39 (≈ 0.594 µM) | 0.78 | 0.03 (≈ 0.0457 µM) | > 100 | 0.2 (≈ 0.305 µM) | MIC (Escherichia coli SS): 0.78; MIC (Candida albicans CCH 442): > 100 µg/mL; MIC ([19]; Table 1B): 0.2 µg/mL (≈ 0.305 µM); MIC [20]: 0.78 µg/mL (≈ 1.19 µM); MIC [21]: 0.2 µg/mL (≈ 0.305 µM); MIC [22]: 0.39; MIC [23]: 0.39 µg/mL (≈ 0.594 µM) |
| CC[C@H]1OC(=O)[C@@](C)(F)C(=O)[C@H](C)[C@@H](O[C@@H]2O[C@H](C)C[C@H](N(C)C)[C@H]2O)[C@](C)(OC/C=C/c2ccc3ncccc3c2)C[C@@H](C)C(=O)[C@H](C)[C@H]2NC(=O)O[C@@]21C [Example 10] | 100 (≈ 128 µM) | 0.25 (≈ 0.319 µM) | 0.1 | 0.1 (≈ 0.128 µM) | 2 (≈ 2.55 µM) | 0.1 | 0.015 (≈ 0.0191 µM) | 0.1 (≈ 0.128 µM) | 100 | 0.01 (≈ 0.0128 µM) | 0.1 | 0.25 (≈ 0.319 µM) | > 100 | 0.1 (≈ 0.128 µM) | > 100 | 0.1 (≈ 0.128 µM) | 0.2 | 0.015 (≈ 0.0191 µM) | 0.39 (≈ 0.497 µM) | 0.05 (≈ 0.0638 µM) | MIC (Escherichia coli SS): 0.1; MIC (Candida albicans CCH 442): > 100 µg/mL; MIC ([19]; Table 1B): 0.02 µg/mL (≈ 0.0255 µM); MIC [20]: 0.1 µg/mL (≈ 0.128 µM); MIC [21]: 0.05 µg/mL (≈ 0.0638 µM); MIC [22]: 0.01; MIC [23]: 0.02 µg/mL (≈ 0.0255 µM) |
| CC[C@H]1OC(=O)[C@@](C)(F)C(=O)[C@H](C)[C@@H](O[C@@H]2O[C@H](C)C[C@H](N(C)C)[C@H]2O)[C@](C)(OC/C=C/c2cnc3ccc(C=O)cc3c2)C[C@@H](C)C(=O)[C@H](C)[C@H]2NC(=O)O[C@@]21C [Example 17] | 100 (≈ 123 µM) | 1 (≈ 1.23 µM) | 0.39 | 0.05 (≈ 0.0616 µM) | 2 (≈ 2.46 µM) | 0.05 | 0.03 (≈ 0.0369 µM) | 0.2 (≈ 0.246 µM) | 100 | 0.01 (≈ 0.0123 µM) | 0.1 | 0.5 (≈ 0.616 µM) | > 100 | 0.1 (≈ 0.123 µM) | > 100 | 0.2 (≈ 0.246 µM) | 0.1 | 0.015 (≈ 0.0185 µM) | 0.78 (≈ 0.961 µM) | 0.05 (≈ 0.0616 µM) | MIC (Escherichia coli SS): 0.78; MIC (Candida albicans CCH 442): > 100 µg/mL; MIC ([19]; Table 1B): 0.02 µg/mL (≈ 0.0246 µM); MIC [20]: 0.1 µg/mL (≈ 0.123 µM); MIC [21]: 0.02 µg/mL (≈ 0.0246 µM); MIC [22]: 0.02; MIC [23]: 0.02 µg/mL (≈ 0.0246 µM) |

From patent US6124269A, “2-Halo-6-O-substituted ketolide derivatives” (priority 1998, dated 2000)
